Measurements: patent publication US10809268B2, “Methods and kits for measuring and quantifying DNA double-stranded breaks using gamma-H2AX and H2AX” (The United States of America, as represented by the …, priority 2015, dated 2020)

Legend:
[1] = system: MCF7 cells; assay: γ-H2AX and total H2AX immunoassays in MCF7 cells treated with SN38 and ATR inhibitors; assay type: cell-based, human; details: SN38 0.25 μM plus ATRi 1 or 0.5 μM
[2] = system: tumors of the human breast carcinoma cell line MX1; assay: γ-H2AX and total H2AX immunoassays on tumor biopsies of drug-treated nude mice with MX1 tumors; assay type: in vivo
Method: Pierce REACTI-BIND plates (96-well) (Thermo Scientific) were coated with anti-7-H2AX antibody (Millipore) diluted to a concentration of 4 μg/mL in 0.1 M pH 9.6 carbonate buffer (Sigma-Aldrich, St. Louis, Mo.), 100 μL/well, for 2 hours at 37° C. The γ-H2AX synthetic peptide standard or a whole-cell extract was added to each well and incubated for antigen capture overnight at 4° C. Plates were incubated with 100 μL/well of 2 μg/mL anti-histone H2AX rabbit polyclonal antibody (Abcam) diluted in 2% bovine serum albumin (BSA)/phosphate buffered saline (PBS) supplemented with 1 μL/mL mouse serum for 2 hours (h) at 24° C. […] Finally, 100 μL/well of freshly prepared SUPERSIGNAL ELISA Pico chemiluminescent substrate (Thermo Scientific, Waltham, Mass.) was added to the plate and immediately read on a TECAN INFINITE M200 plate reader (Tecan Group Ltr., Maennedorf, Switzerland). […] The average γ-H2AX concentration for each cell extract was then determined using the standard curve (FIG. 1B).
Pierce REACTI-BIND plates (96-well) were coated with total anti-H2A core protein HIST1H2AC monoclonal antibody (Novus, St. Charles, Mo.) diluted to a concentration of 4 μg/mL in 0.1 M pH 9.6 carbonate buffer (Sigma-Aldrich), 100 μL/well, for 2 hours at 37° C. […] The average total H2AX concentration for each cell extract was then determined using the standard curve (FIG. 2B). […]

[3] = system: A375 xenografts; assay: γ-H2AX and total H2AX immunoassays on cells from drug-treated A375 xenograft mouse models; details: A375 xenografts in vivo; PARPi given simultaneously or four hours before CPT-11
Method: Pierce REACTI-BIND plates (96-well) (Thermo Scientific) were coated with anti-7-H2AX antibody (Millipore) diluted to a concentration of 4 μg/mL in 0.1 M pH 9.6 carbonate buffer (Sigma-Aldrich, St. Louis, Mo.), 100 μL/well, for 2 hours at 37° C. The γ-H2AX synthetic peptide standard or a whole-cell extract was added to each well and incubated for antigen capture overnight at 4° C. Plates were incubated with 100 μL/well of 2 μg/mL anti-histone H2AX rabbit polyclonal antibody (Abcam) diluted in 2% bovine serum albumin (BSA)/phosphate buffered saline (PBS) supplemented with 1 μL/mL mouse serum for 2 hours (h) at 24° C. Subsequently, 100 μL/well HRP-conjugated affinity-purified goat anti-rabbit (KPL) was added at a final concentration of 1 μg/mL diluted in 2% BSA/PBS, supplemented with 1 μL/mL mouse serum, and incubated for 1 hour at 24° C. […] M200 plate reader (Tecan Group Ltr., Maennedorf, Switzerland). A standard curve was generated by plotting the RLU (relative light unit) values that were obtained for a range of concentrations of the γ-H2AX standard peptide (FIG. 1A). The average γ-H2AX concentration for each cell extract was then determined using the standard curve (FIG. 1B).
A375 xenograft mouse models were treated with vehicle (control), CPT-11 alone, a PARP inhibitor alone, a combination of CPT-11 and the PARP inhibitor (PARPi) administered simultaneously, or a combination of CPT-11 and the PARPi, wherein the PARPi is administered four hours before CPT-11 is administered. […] Cells from the treated mice were quantified for γ-H2AX and total H2AX using the immunoassays of Examples 1 and 2, respectively, and the ratio of γ-H2AX to total H2AX was determined.

[4] = system: γ-H2AX in HCT116 cells; assay: γ-H2AX detection by Western blot in treated HCT116 cell cultures; assay type: cell-based, human
Method: (§1) Human […] cancer cell lines HCT 116 or MCF 7 (ATCC) were cultured with 10% fetal bovine serum at 37° C. in a 5% CO2 incubator. The cells were treated with the topoisomerase I inhibitor topotecan, the apoptosis-inducing biomolecule tumor necrosis factor (TNF)-related apoptosis-inducing ligand (TRAIL), or IR. The γ-H2AX immunoassay (γ-H2AX ELISA) was compared with γ-H2AX detection by both Western blot and immunofluorescence assay (IFA).
(§2) The ELISA detected changes in γ-H2AX in HCT116 cell cultures induced by a variety of treatments in vitro and was overall highly correlated to both IFA and Western blot following treatment with topotecan or TRAIL (Table 6).

[5] = system: γ-H2AX in HCT116 cells; assay: γ-H2AX immunoassay (γ-H2AX ELISA) in treated HCT116 cell cultures; assay type: cell-based, human
Method: Pierce REACTI-BIND plates (96-well) (Thermo Scientific) were coated with anti-7-H2AX antibody (Millipore) diluted to a concentration of 4 μg/mL in 0.1 M pH 9.6 carbonate buffer (Sigma-Aldrich, St. Louis, Mo.), 100 μL/well, for 2 hours at 37° C. The γ-H2AX synthetic peptide standard or a whole-cell extract was added to each well and incubated for antigen capture overnight at 4° C. Plates were incubated with 100 μL/well of 2 μg/mL anti-histone H2AX rabbit polyclonal antibody (Abcam) diluted in 2% bovine serum albumin (BSA)/phosphate buffered saline (PBS) supplemented with 1 μL/mL mouse serum for 2 hours (h) at 24° C. Subsequently, 100 μL/well HRP-conjugated affinity-purified goat anti-rabbit (KPL) was added at a final concentration of 1 μg/mL diluted in 2% BSA/PBS, supplemented with 1 μL/mL mouse serum, and incubated for 1 hour at 24° C. Finally, 100 μL/well of freshly prepared SUPERSIGNAL ELISA Pico chemiluminescent substrate (Thermo Scientific, Waltham, Mass.) was added to the plate and immediately read on a TECAN INFINITE M200 plate reader (Tecan Group Ltr., Maennedorf, Switzerland). A standard curve was generated by plotting the RLU (relative light unit) values that were obtained for a range of concentrations of the γ-H2AX standard peptide (FIG. 1A). The average γ-H2AX concentration for each cell extract was then determined using the standard curve (FIG. 1B).
as §1, §2

[6] = system: γ-H2AX in HCT116 cells; assay: γ-H2AX detection by immunofluorescence assay (IFA) in treated HCT116 cell cultures; assay type: cell-based, human
Method: as §1, §2

[7] = system: HT29 cells; assay: Ratio of γ-H2AX to total H2AX in HT29 cells treated 1 hour in vitro; assay type: cell-based, human
Method: Pierce REACTI-BIND plates (96-well) (Thermo Scientific) were coated with anti-7-H2AX antibody (Millipore) diluted to a concentration of 4 μg/mL in 0.1 M pH 9.6 carbonate buffer (Sigma-Aldrich, St. Louis, Mo.), 100 μL/well, for 2 hours at 37° C. The γ-H2AX synthetic peptide standard or a whole-cell extract was added to each well and incubated for antigen capture overnight at 4° C. Plates were incubated with 100 μL/well of 2 μg/mL anti-histone H2AX rabbit polyclonal antibody (Abcam) diluted in 2% bovine serum albumin (BSA)/phosphate buffered saline (PBS) supplemented with 1 μL/mL mouse serum for 2 hours (h) at 24° C. Subsequently, 100 μL/well HRP-conjugated affinity-purified goat anti-rabbit (KPL) was added at a final concentration of 1 μg/mL diluted in 2% BSA/PBS, supplemented with 1 μL/mL mouse serum, and incubated for 1 hour at 24° C. Finally, 100 μL/well of freshly prepared SUPERSIGNAL ELISA Pico chemiluminescent substrate (Thermo Scientific, Waltham, Mass.) was added to the plate and immediately read on a TECAN INFINITE M200 plate reader (Tecan Group Ltr., Maennedorf, Switzerland). […] The average γ-H2AX concentration for each cell extract was then determined using the standard curve (FIG. 1B).
Pierce REACTI-BIND plates (96-well) were coated with total anti-H2A core protein HIST1H2AC monoclonal antibody (Novus, St. Charles, Mo.) diluted to a concentration of 4 μg/mL in 0.1 M pH 9.6 carbonate buffer (Sigma-Aldrich), 100 μL/well, for 2 hours at 37° C. […] Finally, 100 μL/well of freshly prepared SUPERSIGNAL ELISA Pico chemiluminescent substrate (Thermo Scientific) was added to the plate and immediately read on a TECAN INFINITE M200 plate reader. […] The average total H2AX concentration for each cell extract was then determined using the standard curve (FIG. 2B).
HT29 cells were treated with the genotoxic agent camptothecin (CPT) or the non-genotoxic agent rhomidepsin for 1 hour at a concentration of 0 (vehicle) 0.001, 0.001, 0.01, 1 or 10 μM. […] DNA DSB, as measured by the ratio of γ-H2AX to total H2AX, was detected with CPT treatment as low as 1 nM. […]

[8] = system: γ-H2AX in HT29 or MCF7 cells; assay: Microscope staining with labeled anti-γ-H2AX antibody (IFA) of cells treated as in Example 14; assay type: cell-based, human; details: 10 nM, 100 nM, 1 μM and 10 μM CPT; intensity increased with concentration
Text: The presence of γ-H2AX in the cells treated as described in Example 14 was confirmed by staining using a labeled anti-γ-H2AX antibody and observing the intensity of the staining through a microscope. […] The staining intensity increased as the concentration of CPT used to treat the cells increased.
The γ-H2AX in the cells treated as described in Example 14 was quantified by staining using a labeled anti-γ-H2AX antibody and measuring the intensity of the staining observed through a microscope (immunofluorescence microscope assay (IFA)). The quantity of γ-H2AX measured by staining intensity was compared to the ratio of γ-H2AX to total H2AX measured by the immunoassays (IA) of Examples 1 and 2. The results are shown in FIG. 18A (HT29) and FIG. 18B (MCF7).

Molecule: CNCc1ccc(-c2cc(-c3nc(-c4ccc(S(=O)(=O)C(C)C)cc4)cnc3N)on2)cc1 [VE-822]
- synergy for γ-H2AX induction in combination with the Top1 inhibitor SN38 [1]: highest synergy

Molecule: O=C(c1cc(Cc2n[nH]c(=O)c3ccccc23)ccc1F)N1CCN(C(=O)C2CC2)CC1 [AZD2281]
- γ-H2AX induction (ratio of γH2AX to total H2AX) ([2]; 50 or 6.25 units AZD2281 IP in combination with irinotecan 7.5 units IV, particularly at 4 hours after administration): induced substantially more γ-H2AX
- induction of γ-H2AX (DNA DSB) in combination with CPT-11 [3]: synergistic induction of γ-H2AX

Molecule: Nc1nc(N)c(N=O)c(OCC2CCCCC2)n1 [NU-6027]
- synergy for γ-H2AX induction in combination with the Top1 inhibitor SN38 [1]: none

Molecule: CCc1c2c(nc3ccc(OC(=O)N4CCC(N5CCCCC5)CC4)cc13)-c1cc3c(c(=O)n1C2)COC(=O)[C@]3(O)CC [irinotecan]
- γ-H2AX induction (ratio of γH2AX to total H2AX) ([2]; irinotecan 7.5 units IV alone, MX1 tumor biopsies, nude mice): induced γ-H2AX modestly

Molecule: NC(=O)c1cccc2cn(-c3ccc([C@@H]4CCCNC4)cc3)nc12 [MK-4827]
- induction of γ-H2AX (DNA DSB) in combination with CPT-11 [3]: synergistic induction of γ-H2AX

Molecule: CC[C@@]1(O)C(=O)OCc2c1cc1n(c2=O)Cc2cc3c(CN(C)C)c(O)ccc3nc2-1 [Topotecan, topotecan]
- γ-H2AX Western Blot ([4]; Topotecan 1 μM, 0 hr): 4.7 RLU
- γ-H2AX Western Blot ([4]; Topotecan 1 μM, 1 hr): 8.1 RLU
- γ-H2AX Western Blot ([4]; Topotecan 1 μM, 3 hr): 6.9 RLU
- γ-H2AX Western Blot ([4]; Topotecan 1 μM, 6 hr): 14.3 RLU
- γ-H2AX ELISA ([5]; Topotecan 1 μM, 0 hr): 124 pM
- γ-H2AX ELISA ([5]; Topotecan 1 μM, 1 hr): 2536 pM
- γ-H2AX ELISA ([5]; Topotecan 1 μM, 3 hr): 3134 pM
- γ-H2AX ELISA ([5]; Topotecan 1 μM, 6 hr): 4793 pM
- γ-H2AX IFA ([6]; Topotecan 1 μM, 0 hr): 0.7 RLU
- γ-H2AX IFA ([6]; Topotecan 1 μM, 1 hr): 23.0 RLU
- γ-H2AX IFA ([6]; Topotecan 1 μM, 3 hr): 43.9 RLU
- γ-H2AX IFA ([6]; Topotecan 1 μM, 6 hr): 51.2 RLU

Molecule: C[C@]1(c2nc3c(C(N)=O)cccc3[nH]2)CCCN1 [ABT-888]
- induction of γ-H2AX (DNA DSB) in combination with CPT-11 [3]: synergistic induction of γ-H2AX

Molecule: C/C=C1\NC(=O)[C@H]2CSSCC/C=C/[C@H](CC(=O)N[C@H](C(C)C)C(=O)N2)OC(=O)[C@H](C(C)C)NC1=O [rhomidepsin]
- DNA DSB, as measured by the ratio of γ-H2AX to total H2AX ([7]; 1 hour, even at a concentration as high as 10 μM): no DNA DSB

Molecule: C[C@@H]1COCCN1c1cc(C2([S@](C)(=N)=O)CC2)nc(-c2cc[nH]c3nccc2-3)n1 [AZD-6738]
- synergy for γ-H2AX induction in combination with the Top1 inhibitor SN38 [1]: highest synergy

Molecule: CC[C@@]1(O)C(=O)OCc2c1cc1n(c2=O)Cc2cc3ccccc3nc2-1 [CPT, camptothecin]
- concentration at which DNA DSB, as measured by the ratio of γ-H2AX to total H2AX, was detected ([7]; 1 hour treatment): ≥ 1 nM
- concentration giving a detectable signal of DNA DSB (ratio of γ-H2AX to total H2AX) ([7]; 1 hour, with as few as 160 cells per assay): ≥ 0.01 µM
- staining with labeled anti-γ-H2AX antibody [8]: Staining was observed

B1: TRAIL: apoptosis-inducing biomolecule tumor necrosis factor (TNF)-related apoptosis-inducing ligand (protein, UniProt P50591 1-281, looked up)
Tumor necrosis factor ligand …: MAMMEVQGGPSLGQTCVLIVIFTVLLQSLCVAVTYVYFTNELKQMQDKYSKSGIACFLKEDDSYWDPNDEESMNSPCWQVKWQLRQLVRKMILRTSEETISTVQEKQQNISPLVRERGPQRVAAHITGTRGRSNTLSSPNSKNEKALGRKINSWESSRSGHSFLSNLHLRNGELVIHEKGFYYIYSQTYFRFQEEIKENTKNDKQMVQYIYKYTSYPDPILLMKSARNSCWSKDAEYGLYSIYQGGIFELKENDRIFVSVTNEHLIDMDHEASFFGAFLVG
- γ-H2AX Western Blot ([4]; TRAIL 0.1 μg/mL, 0 hr): 2.7 RLU
- γ-H2AX Western Blot ([4]; TRAIL 0.1 μg/mL, 1 hr): 17.3 RLU
- γ-H2AX Western Blot ([4]; TRAIL 0.1 μg/mL, 3 hr): 45.8 RLU
- γ-H2AX Western Blot ([4]; TRAIL 0.1 μg/mL, 6 hr): 43.5 RLU
- γ-H2AX ELISA ([5]; TRAIL 0.1 μg/mL, 0 hr): 134 pM
- γ-H2AX ELISA ([5]; TRAIL 0.1 μg/mL, 1 hr): 2764 pM
- γ-H2AX ELISA ([5]; TRAIL 0.1 μg/mL, 3 hr): 9276 pM
- γ-H2AX ELISA ([5]; TRAIL 0.1 μg/mL, 6 hr): 7703 pM
- γ-H2AX IFA ([6]; TRAIL 0.1 μg/mL, 0 hr): 2.0 RLU
- γ-H2AX IFA ([6]; TRAIL 0.1 μg/mL, 1 hr): 34.5 RLU
- γ-H2AX IFA ([6]; TRAIL 0.1 μg/mL, 3 hr): 72.2 RLU
- γ-H2AX IFA ([6]; TRAIL 0.1 μg/mL, 6 hr): 49.6 RLU
